# Test results taken from ChEMBL document CHEMBL3885881, “DrugMatrix”.
# Species on record: Rattus norvegicus
# Test: DrugMatrix - Regimen: Daily Repeat
# Assay type: toxicity, organism-based, Sprague-Dawley
# Set-up: regimen Daily Repeat, gender Male, age 6-8 weeks
# Conditions: in vivo, po, route oral GAVAGE, vehicle .5 % CMC; for ABSOLUTE BASOPHIL / ABSOLUTE EOSINOPHIL / ABSOLUTE LYMPHOCYTE / ABSOLUTE MONOCYTE / ABSOLUTE SEGMENTED NEUTROPHIL / BASOPHIL / EOSINOPHIL / ERYTHROCYTE COUNT / HEMATOCRIT / HEMOGLOBIN / LEUKOCYTE COUNT / LYMPHOCYTE / MEAN CORPUSCULAR HEMOGLOBIN / MEAN CORPUSCULAR HEMOGLOBIN CONCENTRATION / MEAN CORPUSCULAR VOLUME / MONOCYTE / NEUTROPHIL / NUCLEATED RED BLOOD CELLS / PLATELET COUNT: tissue Blood; for ALANINE AMINOTRANSFERASE / ALBUMIN / ALKALINE PHOSPHATASE / ASPARTATE AMINOTRANSFERASE / BLOOD UREA NITROGEN / CARBON DIOXIDE / CHLORIDE / CHOLESTEROL / CREATINE PHOSPHOKINASE / CREATININE / GLUCOSE / LACTATE DEHYDROGENASE / LIPASE / PHOSPHORUS / POTASSIUM / SODIUM / TOTAL BILIRUBIN / TOTAL PROTEIN / URIC ACID: tissue Plasma
# [1] = 12 mg/kg, 72 h, dose level Low, time 3 day
# [2] = 12 mg/kg, 120 h, dose level Low, time 5 day
# [3] = 1200 mg/kg, 72 h, dose level High, time 3 day
# [4] = 1200 mg/kg, 120 h, dose level High, time 5 day
smiles,measurement,setting,value
CC(=O)OCC(COC(C)=O)OC(C)=O [TRIACETIN],ABSOLUTE BASOPHIL,[1],0 CELLS/uL
same,ABSOLUTE EOSINOPHIL,[1],0 CELLS/uL
same,ABSOLUTE LYMPHOCYTE,[1],13591 CELLS/uL
same,ABSOLUTE MONOCYTE,[1],0 CELLS/uL
same,ABSOLUTE SEGMENTED NEUTROPHIL,[1],1342.33 CELLS/uL
same,BASOPHIL,[1],0%
same,EOSINOPHIL,[1],0%
same,ERYTHROCYTE COUNT,[1],5.57 x10E6/uL
same,HEMATOCRIT,[1],35.43%
same,HEMOGLOBIN,[1],13.97 G/DL
same,LEUKOCYTE COUNT,[1],14.93 x10E3/uL
same,LYMPHOCYTE,[1],91.33%
same,MEAN CORPUSCULAR HEMOGLOBIN,[1],25.13 pg
same,MEAN CORPUSCULAR HEMOGLOBIN CONCENTRATION,[1],39.43 G/DL
same,MEAN CORPUSCULAR VOLUME,[1],63.77 fL
same,MONOCYTE,[1],0%
same,NEUTROPHIL,[1],8.67%
same,NUCLEATED RED BLOOD CELLS,[1],0 /100WBC
same,PLATELET COUNT,[1],1332 x10E3/uL
same,ALANINE AMINOTRANSFERASE,[1],52 u/L
same,ALBUMIN,[1],4.5 G/DL
same,ALKALINE PHOSPHATASE,[1],453.33 u/L
same,ASPARTATE AMINOTRANSFERASE,[1],96.33 u/L
same,BLOOD UREA NITROGEN,[1],14.33 mg/dL
same,CARBON DIOXIDE,[1],21.67 mmol/L
same,CHLORIDE,[1],105 MEQ/L
same,CHOLESTEROL,[1],71.67 mg/dL
same,CREATINE PHOSPHOKINASE,[1],251 u/L
same,CREATININE,[1],0.21 mg/dL
same,GLUCOSE,[1],185 mg/dL
same,LACTATE DEHYDROGENASE,[1],165.33 u/L
same,LIPASE,[1],9.33 u/L
same,PHOSPHORUS,[1],13.93 mg/dL
same,POTASSIUM,[1],6.64 MEQ/L
same,SODIUM,[1],149.57 MEQ/L
same,TOTAL BILIRUBIN,[1],0.17 mg/dL
same,TOTAL PROTEIN,[1],6.2 G/DL
same,URIC ACID,[1],2.07 mg/dL
same,ABSOLUTE BASOPHIL,[2],0 CELLS/uL
same,ABSOLUTE EOSINOPHIL,[2],0 CELLS/uL
same,ABSOLUTE LYMPHOCYTE,[2],15649 CELLS/uL
same,ABSOLUTE MONOCYTE,[2],168.33 CELLS/uL
same,ABSOLUTE SEGMENTED NEUTROPHIL,[2],1016 CELLS/uL
same,BASOPHIL,[2],0%
same,EOSINOPHIL,[2],0%
same,ERYTHROCYTE COUNT,[2],5.29 x10E6/uL
same,HEMATOCRIT,[2],33.97%
same,HEMOGLOBIN,[2],13.27 G/DL
same,LEUKOCYTE COUNT,[2],16.83 x10E3/uL
same,LYMPHOCYTE,[2],93%
same,MEAN CORPUSCULAR HEMOGLOBIN,[2],25.03 pg
same,MEAN CORPUSCULAR HEMOGLOBIN CONCENTRATION,[2],39.07 G/DL
same,MEAN CORPUSCULAR VOLUME,[2],64.17 fL
same,MONOCYTE,[2],1%
same,NEUTROPHIL,[2],6%
same,NUCLEATED RED BLOOD CELLS,[2],0 /100WBC
same,PLATELET COUNT,[2],1422 x10E3/uL
same,ALANINE AMINOTRANSFERASE,[2],45.67 u/L
same,ALBUMIN,[2],4.27 G/DL
same,ALKALINE PHOSPHATASE,[2],402 u/L
same,ASPARTATE AMINOTRANSFERASE,[2],80.33 u/L
same,BLOOD UREA NITROGEN,[2],15 mg/dL
same,CARBON DIOXIDE,[2],24.33 mmol/L
same,CHLORIDE,[2],103.67 MEQ/L
same,CHOLESTEROL,[2],58 mg/dL
same,CREATINE PHOSPHOKINASE,[2],234 u/L
same,CREATININE,[2],0.12 mg/dL
same,GLUCOSE,[2],156 mg/dL
same,LACTATE DEHYDROGENASE,[2],145 u/L
same,LIPASE,[2],8.33 u/L
same,PHOSPHORUS,[2],14.27 mg/dL
same,POTASSIUM,[2],7.19 MEQ/L
same,SODIUM,[2],146.97 MEQ/L
same,TOTAL BILIRUBIN,[2],0.17 mg/dL
same,TOTAL PROTEIN,[2],5.73 G/DL
same,URIC ACID,[2],1.77 mg/dL
same,ABSOLUTE BASOPHIL,[3],0 CELLS/uL
same,ABSOLUTE EOSINOPHIL,[3],0 CELLS/uL
same,ABSOLUTE LYMPHOCYTE,[3],15023 CELLS/uL
same,ABSOLUTE MONOCYTE,[3],340 CELLS/uL
same,ABSOLUTE SEGMENTED NEUTROPHIL,[3],1637 CELLS/uL
same,BASOPHIL,[3],0%
same,EOSINOPHIL,[3],0%
same,ERYTHROCYTE COUNT,[3],5.45 x10E6/uL
same,HEMATOCRIT,[3],35.37%
same,HEMOGLOBIN,[3],13.63 G/DL
same,LEUKOCYTE COUNT,[3],17 x10E3/uL
same,LYMPHOCYTE,[3],88%
same,MEAN CORPUSCULAR HEMOGLOBIN,[3],25 pg
same,MEAN CORPUSCULAR HEMOGLOBIN CONCENTRATION,[3],38.57 G/DL
same,MEAN CORPUSCULAR VOLUME,[3],64.9 fL
same,MONOCYTE,[3],2%
same,NEUTROPHIL,[3],10%
same,NUCLEATED RED BLOOD CELLS,[3],0 /100WBC
same,PLATELET COUNT,[3],1322 x10E3/uL
same,ALANINE AMINOTRANSFERASE,[3],49.33 u/L
same,ALBUMIN,[3],4.13 G/DL
same,ALKALINE PHOSPHATASE,[3],331 u/L
same,ASPARTATE AMINOTRANSFERASE,[3],79.33 u/L
same,BLOOD UREA NITROGEN,[3],14 mg/dL
same,CARBON DIOXIDE,[3],19 mmol/L
same,CHLORIDE,[3],102 MEQ/L
same,CHOLESTEROL,[3],69.67 mg/dL
same,CREATINE PHOSPHOKINASE,[3],229 u/L
same,CREATININE,[3],0.18 mg/dL
same,GLUCOSE,[3],149.33 mg/dL
same,LACTATE DEHYDROGENASE,[3],172.67 u/L
same,LIPASE,[3],10 u/L
same,PHOSPHORUS,[3],14.13 mg/dL
same,POTASSIUM,[3],7.15 MEQ/L
same,SODIUM,[3],145.03 MEQ/L
same,TOTAL BILIRUBIN,[3],0.17 mg/dL
same,TOTAL PROTEIN,[3],5.83 G/DL
same,URIC ACID,[3],1.73 mg/dL
same,ABSOLUTE BASOPHIL,[4],0 CELLS/uL
same,ABSOLUTE EOSINOPHIL,[4],0 CELLS/uL
same,ABSOLUTE LYMPHOCYTE,[4],12251.33 CELLS/uL
same,ABSOLUTE MONOCYTE,[4],0 CELLS/uL
same,ABSOLUTE SEGMENTED NEUTROPHIL,[4],1215.33 CELLS/uL
same,BASOPHIL,[4],0%
same,EOSINOPHIL,[4],0%
same,ERYTHROCYTE COUNT,[4],5.48 x10E6/uL
same,HEMATOCRIT,[4],34.33%
same,HEMOGLOBIN,[4],13.57 G/DL
same,LEUKOCYTE COUNT,[4],13.47 x10E3/uL
same,LYMPHOCYTE,[4],91%
same,MEAN CORPUSCULAR HEMOGLOBIN,[4],24.77 pg
same,MEAN CORPUSCULAR HEMOGLOBIN CONCENTRATION,[4],39.6 G/DL
same,MEAN CORPUSCULAR VOLUME,[4],62.6 fL
same,MONOCYTE,[4],0%
same,NEUTROPHIL,[4],9%
same,NUCLEATED RED BLOOD CELLS,[4],0 /100WBC
same,PLATELET COUNT,[4],1274.67 x10E3/uL
same,ALANINE AMINOTRANSFERASE,[4],49.33 u/L
same,ALBUMIN,[4],4.07 G/DL
same,ALKALINE PHOSPHATASE,[4],315.33 u/L
same,ASPARTATE AMINOTRANSFERASE,[4],87.67 u/L
same,BLOOD UREA NITROGEN,[4],16.67 mg/dL
same,CARBON DIOXIDE,[4],25 mmol/L
same,CHLORIDE,[4],103 MEQ/L
same,CHOLESTEROL,[4],71 mg/dL
same,CREATINE PHOSPHOKINASE,[4],262.67 u/L
same,CREATININE,[4],0.16 mg/dL
same,GLUCOSE,[4],147.33 mg/dL
same,LACTATE DEHYDROGENASE,[4],331 u/L
same,LIPASE,[4],8.33 u/L
same,PHOSPHORUS,[4],13.2 mg/dL
same,POTASSIUM,[4],6.8 MEQ/L
same,SODIUM,[4],145.37 MEQ/L
same,TOTAL BILIRUBIN,[4],0.17 mg/dL
same,TOTAL PROTEIN,[4],6 G/DL
same,URIC ACID,[4],1.37 mg/dL
